Experimental data as given in patent US20240228488A1 (TAKEDA PHARMACEUTICAL COMPANY LIMITED, priority 2021, published 2024).

Experiments:
[1] = target: human activated kallikrein enzyme (Homo sapiens, UniProt P03952); test: Plasma kallikrein inhibition, fluorogenic PFR-AMC substrate, 500 pM activated kallikrein format; format: biochemical; settings: 500 pM activated kallikrein, 300 uM PFR-AMC, 30 min preincubation, 10 min reaction; read-out: Primary Dose Response Assay: Average EC50
Outline: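 Fluorescence (ex 380/em 460 nm) is read after 10 min of 300 uM PFR-AMC turnover by 500 pM enzyme at RT. Compounds sit with enzyme for 30 min beforehand. Buffer is Tris (pH 7.5) with EDTA, NaCl, PEG-400 and Triton X-100; EC50 values are banded.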

[2] = target: T1, plasma kallikrein (Homo sapiens, UniProt P03952); test: Neat human plasma assay, FXIIa contact pathway-activated, PFR-AMC substrate; format: biochemical; settings: citrated human plasma 78% final, 10 nM human FXIIa, 100 μM PFR-AMC; read-out: Human Plasma Assay: IC90
T1 construct: from tissue
T1 sequence (P03952 391-638 limits assumed): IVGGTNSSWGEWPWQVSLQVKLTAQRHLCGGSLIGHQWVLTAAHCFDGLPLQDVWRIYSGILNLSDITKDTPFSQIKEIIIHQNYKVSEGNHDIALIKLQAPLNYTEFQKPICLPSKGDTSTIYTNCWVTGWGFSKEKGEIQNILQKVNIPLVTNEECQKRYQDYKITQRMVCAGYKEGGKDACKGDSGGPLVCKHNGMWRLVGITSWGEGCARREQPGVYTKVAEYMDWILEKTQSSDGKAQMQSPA
T1 sequence (P03952 20-390 partner limits assumed): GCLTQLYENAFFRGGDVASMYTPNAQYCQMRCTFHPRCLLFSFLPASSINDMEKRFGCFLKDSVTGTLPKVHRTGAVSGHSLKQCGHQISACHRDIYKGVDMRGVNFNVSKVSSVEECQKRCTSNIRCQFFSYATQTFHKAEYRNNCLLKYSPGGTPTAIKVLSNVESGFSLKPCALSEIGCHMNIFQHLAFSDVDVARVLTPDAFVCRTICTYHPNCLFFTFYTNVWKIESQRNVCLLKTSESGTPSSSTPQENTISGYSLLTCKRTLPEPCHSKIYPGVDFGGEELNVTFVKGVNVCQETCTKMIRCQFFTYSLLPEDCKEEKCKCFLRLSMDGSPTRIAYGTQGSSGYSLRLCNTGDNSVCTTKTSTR
Outline: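 Compound inhibition of plasma kallikrein measured as PFR-AMC (100 μM) cleavage rate over 5 min at room temperature in 78% citrated human plasma activated with 10 nM FXIIa (Tris pH 7.5 buffer). IC50/IC90 from 4-parameter fit of rate versus inhibitor concentration.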

human activated kallikrein enzyme, sequence (P03952 391-638 limits assumed): as the sequence (P03952 391-638 limits assumed) above
human activated kallikrein enzyme, sequence (P03952 20-390 partner limits assumed): as the sequence (P03952 20-390 partner limits assumed) above

Row | Structure (SMILES) | EC50 [1] | IC90 [2]
1 | O=C(O)CN1CCN(c2cc(C3CC3)cn3cc(CNc4ccnc(NC(=O)[C@H]5C[C@@H]5c5cccc(Cl)c5)c4)nc23)CC1 [Example 602, 2-(4-(2-(((2-((1S,2S)-2-(3-chlorophenyl)cyclopropane-1-carboxamido)pyridin-4-yl)amino)methyl)-6-cyclopropylimidazo[1,2-a]pyridin-8-yl)piperazin-1-yl)acetic acid] | < 1 nM | < 400 nM
2 | CN1CCN(c2cc(C3CC3)cn3cc(CNc4cc(NC(=O)[C@H]5C[C@@H]5c5cccc(Cl)c5)nc(O)n4)nc23)CC1 [Example 285, (1S,2S)-2-(3-chlorophenyl)-N-(6-(((6-cyclopropyl-8-(4-methylpiperazin-1-yl)imidazo[1,2-a]pyridin-2-yl)methyl)amino)-2-hydroxypyrimidin-4-yl)cyclopropane-1-carboxamide] | < 1 nM | < 400 nM
3 | Cc1ccnc([C@H]2C[C@@H]2C(=O)Nc2cc(N(C)Cc3cn4cc(C5CC5)cc(N5CC(=O)N(C)C5=O)c4n3)ncn2)n1 (racemic) [Example 387, rac-(1S*,2S*)-N-(6-(((6-cyclopropyl-8-(3-methyl-2,4-dioxoimidazolidin-1-yl)imidazo[1,2-a]pyridin-2-yl)methyl)(methyl)amino)pyrimidin-4-yl)-2-(4-methylpyrimidin-2-yl)cyclopropane-1-carboxamide] | < 1 nM | < 400 nM
4 | Cc1ccnc([C@H]2C[C@@H]2C(=O)Nc2cc(Cc3cn4cc(C5CC5)cc(N5CC(=O)N(C)C5=O)c4n3)ncn2)n1 (racemic) [Example 620, rac-(1S*,2S*)—N-(6-((6-cyclopropyl-8-(3-methyl-2,4-dioxoimidazolidin-1-yl)imidazo[1,2-a]pyridin-2-yl)methyl)pyrimidin-4-yl)-2-(4-methylpyrimidin-2-yl)cyclopropane-1-carboxamide] | 1 to 10 nM | 400 to 1500 nM
5 | O=C(Nc1cc(N2C[C@@H](O)C[C@@H]2c2cn3cc(C4CC4)ccc3n2)ncn1)[C@H]1C[C@@H]1c1nccc(Cl)n1 (relative stereo) [Example 481, rac-(1S*,2S*)-2-(4-chloropyrimidin-2-yl)-N-(6-((2R,4S)-2-(6-cyclopropylimidazo[1,2-a]pyridin-2-yl)-4-hydroxypyrrolidin-1-yl)pyrimidin-4-yl)cyclopropane-1-carboxamide] | < 1 nM | 1500 to 10000 nM
6 | CN(C)CCc1cc(C2CC2)cn2cc(CNc3ccnc(NC(=O)[C@H]4C[C@@H]4c4cccc(Cl)c4)c3)nc12 [Example 598, (1S,2S)-2-(3-chlorophenyl)-N-(4-(((6-cyclopropyl-8-(2-(dimethylamino)ethyl)imidazo[1,2-a]pyridin-2-yl)methyl)amino)pyridin-2-yl)cyclopropane-1-carboxamide] | < 1 nM | < 400 nM
7 | COCC(Nc1cc(NC(=O)[C@H]2C[C@@H]2c2nccc(C)n2)ncn1)c1cn2cc(C3CC3)cc(N3CC(=O)N(C)C3=O)c2n1 (stereo partly drawn) [Example 373, (1S,2S)-N-(6-((1-(6-cyclopropyl-8-(3-methyl-2,4-dioxoimidazolidin-1-yl)imidazo[1,2-a]pyridin-2-yl)-2-methoxyethyl)amino)pyrimidin-4-yl)-2-(4-methylpyrimidin-2-yl)cyclopropane-1-carboxamide] | 1 to 10 nM | 400 to 1500 nM
8 | O=C1CN(c2cc(C3CC3)cn3cc([C@H]4C[C@H](O)CN4c4cc(NC(=O)[C@H]5C[C@@H]5c5cc(Cl)ccn5)ncn4)nc23)C(=O)N1 [Example 475, (1S,2S)-2-(4-chloropyridin-2-yl)-N-(6-((2R,4S)-2-(6-cyclopropyl-8-(2,4-dioxoimidazolidin-1-yl)imidazo[1,2-a]pyridin-2-yl)-4-hydroxypyrrolidin-1-yl)pyrimidin-4-yl)cyclopropane-1-carboxamide] | < 1 nM | < 400 nM
9 | CN1C(=O)CN(c2cc(C3CC3)cn3cc([C@H]4C[C@H](O)CN4c4cc(NC(=O)[C@H]5C[C@@H]5c5cc(Cl)ccn5)ncn4)nc23)C1=O [Example 478, (1S,2S)-2-(4-chloropyridin-2-yl)-N-(6-((2R,4S)-2-(6-cyclopropyl-8-(3-methyl-2,4-dioxoimidazolidin-1-yl)imidazo[1,2-a]pyridin-2-yl)-4-hydroxypyrrolidin-1-yl)pyrimidin-4-yl)cyclopropane-1-carboxamide] | < 1 nM | 400 to 1500 nM
10 | O=C(Nc1cc(NCc2cn3cc(C4CC4)cc(N4CCN5CCCC5C4)c3n2)ccn1)[C@H]1C[C@@H]1c1cccc(Cl)c1 (stereo partly drawn) [Example I-231, (1S,2S)-2-(3-chlorophenyl)-N-(4-(((6-cyclopropyl-8-(hexahydropyrrolo[1,2-a]pyrazin-2(1H)-yl)imidazo[1,2-a]pyridin-2-yl)methyl)amino)pyridin-2-yl)cyclopropane-1-carboxamide] | < 1 nM | 400 to 1500 nM

More lines, now with the values ahead:

Row | EC50 [1] | IC90 [2] | Structure (SMILES)
11 | < 1 nM | < 400 nM | Cc1ccnc([C@H]2C[C@@H]2C(=O)Nc2ncc(F)c(NCc3cn4cc(C5CC5)cc(N5CC(=O)N(CCO)C5=O)c4n3)n2)n1 (racemic) [Example 540, rac-(1S*,2S*)—N-(4-(((6-cyclopropyl-8-(3-(2-hydroxyethyl)-2,4-dioxoimidazolidin-1-yl)imidazo[1,2-a]pyridin-2-yl)methyl)amino)-5-fluoropyrimidin-2-yl)-2-(4-methylpyrimidin-2-yl)cyclopropane-1-carboxamide]
12 | < 1 nM | 1500 to 10000 nM | O=C(Nc1cc(NCc2cn3cc(C4CC4)ccc3n2)ccn1)[C@H]1C[C@@H]1c1cccc(Cl)c1 (single isomer, unassigned) [Example 117]
13 | < 1 nM | < 400 nM | Cc1ccnc([C@H]2C[C@@H]2C(=O)Nc2cc(NCc3cn4cc(C5CC5)cc(N5CCOC5=O)c4n3)ncn2)n1 [Example 376, (1S,2S)-N-(6-(((6-cyclopropyl-8-(2-oxooxazolidin-3-yl)imidazo[1,2-a]pyridin-2-yl)methyl)amino)pyrimidin-4-yl)-2-(4-methylpyrimidin-2-yl)cyclopropane-1-carboxamide]
14 | < 1 nM | 400 to 1500 nM | Cc1ccnc([C@H]2C[C@@H]2C(=O)Nc2cc(NCc3cn4cc(C5CC5)cc(N5CC(=O)N(CC(F)(F)F)C5=O)c4n3)ncn2)n1 (racemic) [Example 388, rac-(1S*,2S*)-N-(6-(((6-cyclopropyl-8-(2,4-dioxo-3-(2,2,2-trifluoroethyl)imidazolidin-1-yl)imidazo[1,2-a]pyridin-2-yl)methyl)amino)pyrimidin-4-yl)-2-(4-methylpyrimidin-2-yl)cyclopropane-1-carboxamide]
15 | < 1 nM | 400 to 1500 nM | Cc1ccnc([C@H]2C[C@@H]2C(=O)Nc2nc(C3CC3)nc(N(C)Cc3cn4cc(C5CC5)cc(N5CC(=O)NC5=O)c4n3)n2)n1 (racemic) [Example 522, rac-(1S*,2S*)-N-(4-cyclopropyl-6-(((6-cyclopropyl-8-(2,4-dioxoimidazolidin-1-yl)imidazo[1,2-a]pyridin-2-yl)methyl)(methyl)amino)-1,3,5-triazin-2-yl)-2-(4-methylpyrimidin-2-yl)cyclopropane-1-carboxamide]
16 | < 1 nM | < 400 nM | Cc1ccnc([C@H]2C[C@@H]2C(=O)Nc2nccc(NCc3cn4cc(C5CC5)cc(N5CC(=O)N(C)C5=O)c4n3)n2)n1 (racemic) [Example 520, rac-(1S*,2S*)-N-(4-(((6-cyclopropyl-8-(3-methyl-2,4-dioxoimidazolidin-1-yl)imidazo[1,2-a]pyridin-2-yl)methyl)amino)pyrimidin-2-yl)-2-(4-methylpyrimidin-2-yl)cyclopropane-1-carboxamide]
17 | < 1 nM | 400 to 1500 nM | Cc1ccnc([C@H]2C[C@@H]2C(=O)Nc2cc(NC(C)c3cn4cc(C5CC5)cc(N5CCN(C)C5=O)c4n3)nc(C)n2)n1 (stereo partly drawn) [Example 364, (1S,2S)-N-(6-((1-(6-cyclopropyl-8-(3-methyl-2-oxoimidazolidin-1-yl)imidazo[1,2-a]pyridin-2-yl)ethyl)amino)-2-methylpyrimidin-4-yl)-2-(4-methylpyrimidin-2-yl)cyclopropane-1-carboxamide]
18 | < 1 nM | < 400 nM | O=C1CN(c2cc(C3CC3)cn3cc(CNc4cc(NC(=O)[C@H]5C[C@@H]5c5cc(Cl)ccn5)ncn4)nc23)C(=O)N1 [Example 395, (1S,2S)-2-(4-chloropyridin-2-yl)-N-(6-(((6-cyclopropyl-8-(2,4-dioxoimidazolidin-1-yl)imidazo[1,2-a]pyridin-2-yl)methyl)amino)pyrimidin-4-yl)cyclopropane-1-carboxamide]
19 | 1 to 10 nM | 1500 to 10000 nM | N#Cc1ccc(Cl)cc1[C@H]1C[C@@H]1C(=O)Nc1cc(N2C[C@@H](O)C[C@@H]2c2cn3cc(C4CC4)ccc3n2)ncn1 (relative stereo) [Example 477, rac-(1S*,2S*)-2-(5-chloro-2-cyanophenyl)-N-(6-((2R,4S)-2-(6-cyclopropylimidazo[1,2-a]pyridin-2-yl)-4-hydroxypyrrolidin-1-yl)pyrimidin-4-yl)cyclopropane-1-carboxamide]
20 | < 1 nM | < 400 nM | Cc1ccnc([C@H]2C[C@@H]2C(=O)Nc2cc(N(C)Cc3cn4cc(C5CC5)cc(N5CC(=O)NC5=O)c4n3)ncn2)n1 [Example 375, (1S,2S)-N-(6-(((6-cyclopropyl-8-(2,4-dioxoimidazolidin-1-yl)imidazo[1,2-a]pyridin-2-yl)methyl)(methyl)amino)pyrimidin-4-yl)-2-(4-methylpyrimidin-2-yl)cyclopropane-1-carboxamide]
